Source: paper PMC6165277 (2018)

How the values were obtained:
[1] = test system: ATP-binding aptamer incorporated DNA scaffold (DNA, duplex) ACCTGGGGGAGTATTGCGGAGGAAGGT/ACCTTCCTCCGCAATACTCCCCCAGGT; experiment: Dox fluorescence quenching titration; conditions: aqueous solution; Dox 1 µg/mL; maximum quenching at Dox/DNA mass ratio ~1:9.8
[2] = test system: ATP-binding aptamer incorporated DNA scaffold (DNA, duplex) ACCTGGGGGAGTATTGCGGAGGAAGGT/ACCTTCCTCCGCAATACTCCCCCAGGT; experiment: Dox fluorescence recovery (release of intercalated Dox); conditions: indirect; Dox/DNA mass ratio 1:10; recovery ~20, ~36, ~56% at 4, 8, 20 mM ATP

binding [1] | binding [2] | SMILES
yes | – | COc1cccc2c1C(=O)c1c(O)c3c(c(O)c1C2=O)C[C@@](O)(C(=O)CO)C[C@@H]3O[C@H]1C[C@H](N)[C@H](O)[C@H](C)O1
– | yes | Nc1ncnc2c1ncn2[C@@H]1O[C@H](COP(=O)(O)OP(=O)(O)OP(=O)(O)O)[C@@H](O)[C@H]1O
